US12723063B2, “GIPR-agonist compounds” (Eli Lilly and Company, priority 2019, dated 2026)
*1 amine or outer side, *2 acyl side, *3 side chain or, on linkers, in order; H or OH if unused. Where a SMILES comes first, the peptide text is derived from it. Side-chain parts run from the residue outwards. [ ]: non-standard residue; d: D form. The star is where a group is joined. C20 diacid = O=C(O)CCCCCCCCCCCCCCCCCCC(=O)*; γGlu = O=C(O)[C@H](CCC(=O)[*:2])N[*:1]; 4Pal = N[C@@H](Cc1ccncc1)C(=O)O; αMeL = CC(C)C[C@](C)(N)C(=O)O; Orn = NCCC[C@H](N)C(=O)O; AEEA = NCCOCCOCC(=O)O; Aib = CC(C)(N)C(=O)O

How the values were obtained:
[1] = molecular target: T1, human GcgR (Homo sapiens, UniProt P47871); experiment: [125I]-Glucagon binding, SPA with WGA beads, 0.1% bacitracin; details: geometric mean, read-out: hGcgR Ki
T1 construct: expressed in transfected cells; crude membranes
T1 sequence (P47871 26-477): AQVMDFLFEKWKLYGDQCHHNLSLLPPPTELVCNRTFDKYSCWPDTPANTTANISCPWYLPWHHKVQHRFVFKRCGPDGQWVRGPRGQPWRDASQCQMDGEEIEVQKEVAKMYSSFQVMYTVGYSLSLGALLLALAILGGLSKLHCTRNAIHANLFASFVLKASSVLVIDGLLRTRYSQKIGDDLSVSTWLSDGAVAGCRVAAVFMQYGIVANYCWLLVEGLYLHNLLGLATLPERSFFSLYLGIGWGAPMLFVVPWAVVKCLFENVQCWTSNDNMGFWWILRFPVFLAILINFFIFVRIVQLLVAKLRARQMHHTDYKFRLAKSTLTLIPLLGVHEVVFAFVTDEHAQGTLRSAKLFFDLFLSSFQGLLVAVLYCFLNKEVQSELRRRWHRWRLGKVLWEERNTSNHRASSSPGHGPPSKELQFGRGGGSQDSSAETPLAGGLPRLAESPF
Procedure, shortened: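 SPA competition binding with WGA beads on crude membranes from HEK293 cells stably expressing hGcgR. Buffer: 25 mM HEPES pH 7.4, 2.5 mM CaCl2, 1 mM MgCl2, 0.1% bacitracin, 0.003% Tween-20; 10-point 3-fold dilutions, NSB with 1 μM Gcg.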

[2] = molecular target: T2, human GIPR (Homo sapiens, UniProt P48546); experiment: [125I]-GIP binding, SPA with WGA beads, 0.1% bacitracin; details: geometric mean, read-out: hGIPR Ki
T2 construct: expressed in transfected cells; crude membranes
T2 sequence (P48546 22-466): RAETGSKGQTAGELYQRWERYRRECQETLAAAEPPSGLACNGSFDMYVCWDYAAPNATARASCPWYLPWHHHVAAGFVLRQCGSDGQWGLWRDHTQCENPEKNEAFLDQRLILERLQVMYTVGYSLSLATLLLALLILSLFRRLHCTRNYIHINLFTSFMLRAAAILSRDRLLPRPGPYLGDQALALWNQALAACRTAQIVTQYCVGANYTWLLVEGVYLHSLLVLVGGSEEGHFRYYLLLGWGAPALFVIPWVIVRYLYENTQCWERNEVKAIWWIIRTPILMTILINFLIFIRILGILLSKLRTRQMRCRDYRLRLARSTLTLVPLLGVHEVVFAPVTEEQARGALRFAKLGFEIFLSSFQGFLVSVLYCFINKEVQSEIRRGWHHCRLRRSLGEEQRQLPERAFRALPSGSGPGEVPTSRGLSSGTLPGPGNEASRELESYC
Procedure, shortened: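 Ki values are geometric means (SEM, n independent days), derived from four-parameter nonlinear regression of IC50. Membranes came from hGIPR-expressing CHO cells.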

Row | Compound | Ki [1] | Ki [2]
1 | CC[C@H](C)[C@H](NC(=O)[C@H](Cc1ccccc1)NC(=O)[C@@H](NC(=O)CNC(=O)[C@H](CCC(=O)O)NC(=O)C(C)(C)NC(=O)[C@@H](N)Cc1ccc(O)cc1)[C@@H](C)O)C(=O)N[C@@H](CO)C(=O)N[C@@H](CC(=O)O)C(=O)N[C@@H](Cc1ccc(O)cc1)C(=O)N[C@@H](CO)C(=O)N[C@H](C(=O)N[C@@](C)(CC(C)C)C(=O)N[C@@H](CC(C)C)C(=O)N[C@@H](CC(=O)O)C(=O)N[C@@H](CCCN)C(=O)N[C@@H](CCCCNC(=O)COCCOCCNC(=O)COCCOCCNC(=O)CC[C@H](NC(=O)CCCCCCCCCCCCCCCCCCC(=O)O)C(=O)O)C(=O)N[C@@H](Cc1c[nH]cn1)C(=O)N[C@@H](CCC(N)=O)C(=O)NC(C)(C)C(=O)N[C@@H](CC(=O)O)C(=O)N[C@@H](Cc1ccccc1)C(=O)N[C@H](C(=O)N[C@@H](CCC(=O)O)C(=O)N[C@@H](Cc1ccncc1)C(=O)N[C@@H](CC(C)C)C(=O)N[C@@H](CC(C)C)C(=O)N[C@@H](CCC(=O)O)C(=O)NCC(=O)NCC(=O)N1CCC[C@H]1C(=O)N[C@@H](CO)C(=O)N[C@@H](CO)C(=O)NCC(=O)N[C@@H](C)C(=O)N1CCC[C@H]1C(=O)N1CCC[C@H]1C(=O)N1CCC[C@H]1C(=O)N[C@@H](CO)C(N)=O)C(C)C)[C@@H](C)CC [Example 82] (H-Y[Aib]EGTFISDYSI[αMeL]LD[Orn]K([AEEA-AEEA-γGlu-C20 diacid])HQ[Aib]DFVE[4Pal]LLEGGPSSGAPPPS-NH2) | 305 nM | 0.0617 nM
2 | CC[C@H](C)[C@H](NC(=O)[C@H](Cc1ccccc1)NC(=O)[C@@H](NC(=O)CNC(=O)[C@H](CCC(=O)O)NC(=O)C(C)(C)NC(=O)[C@@H](N)Cc1ccc(O)cc1)[C@@H](C)O)C(=O)N[C@@H](CO)C(=O)N[C@@H](CC(=O)O)C(=O)N[C@@H](Cc1ccc(O)cc1)C(=O)N[C@@H](CO)C(=O)N[C@H](C(=O)N[C@@](C)(CC(C)C)C(=O)N[C@@H](CC(C)C)C(=O)N[C@@H](CC(=O)O)C(=O)N[C@@H](CCC(=O)O)C(=O)N[C@@H](CCCCNC(=O)COCCOCCNC(=O)COCCOCCNC(=O)CC[C@H](NC(=O)CCCCCCCCCCCCCCCCCCC(=O)O)C(=O)O)C(=O)N[C@@H](Cc1c[nH]cn1)C(=O)N[C@@H](CCC(N)=O)C(=O)NC(C)(C)C(=O)N[C@@H](CC(=O)O)C(=O)N[C@@H](Cc1ccccc1)C(=O)N[C@H](C(=O)N[C@@H](CCC(=O)O)C(=O)N[C@@H](Cc1ccncc1)C(=O)N[C@@H](CC(C)C)C(=O)N[C@@H](CC(C)C)C(=O)N[C@@H](C)C(=O)N[C@@H](CCC(N)=O)C(=O)NCC(=O)N1CCC[C@H]1C(=O)N[C@@H](CO)C(=O)N[C@@H](CO)C(=O)NCC(=O)N[C@@H](C)C(=O)N1CCC[C@H]1C(=O)N1CCC[C@H]1C(=O)N1CCC[C@H]1C(=O)N[C@@H](CO)C(N)=O)C(C)C)[C@@H](C)CC [Example 84] (H-Y[Aib]EGTFISDYSI[αMeL]LDEK([AEEA-AEEA-γGlu-C20 diacid])HQ[Aib]DFVE[4Pal]LLAQGPSSGAPPPS-NH2) | > 958 nM | 0.0584 nM
3 | CC[C@H](C)[C@H](NC(=O)[C@H](CO)NC(=O)[C@H](Cc1ccc(O)cc1)NC(=O)[C@H](CC(=O)O)NC(=O)[C@H](CO)NC(=O)[C@@H](NC(=O)[C@H](Cc1ccccc1)NC(=O)[C@@H](NC(=O)CNC(=O)[C@H](CCC(=O)O)NC(=O)C(C)(C)NC(=O)[C@@H](N)Cc1ccc(O)cc1)[C@@H](C)O)[C@@H](C)CC)C(=O)N[C@@H](CC(C)C)C(=O)N[C@@H](CC(C)C)C(=O)N[C@@H](CC(=O)O)C(=O)N[C@@H](CCCCN)C(=O)N[C@@H](CCCCNC(=O)COCCOCCNC(=O)COCCOCCNC(=O)CC[C@H](NC(=O)CCCCCCCCCCCCCCCCC(=O)O)C(=O)O)C(=O)N[C@@H](Cc1c[nH]cn1)C(=O)N[C@@H](CCC(N)=O)C(=O)NC(C)(C)C(=O)N[C@@H](CC(=O)O)C(=O)N[C@@H](Cc1ccccc1)C(=O)N[C@H](C(=O)N[C@@H](CCC(=O)O)C(=O)N[C@@H](Cc1ccncc1)C(=O)N[C@@H](CC(C)C)C(=O)N[C@@H](CC(C)C)C(=O)N[C@@H](C)C(=O)NCC(=O)NCC(=O)N1CCC[C@H]1C(=O)N[C@@H](CO)C(=O)N[C@@H](CO)C(=O)NCC(=O)N[C@@H](C)C(=O)N1CCC[C@H]1C(=O)N1CCC[C@H]1C(=O)N1CCC[C@H]1C(=O)N[C@@H](CO)C(N)=O)C(C)C [Example 22] | > 1380 nM | 0.219 nM
4 | CC[C@H](C)[C@H](NC(=O)[C@H](CCCCN)NC(=O)[C@H](CC(=O)O)NC(=O)[C@H](CC(C)C)NC(=O)[C@](C)(CC(C)C)NC(=O)[C@@H](NC(=O)[C@H](CO)NC(=O)[C@H](Cc1ccc(O)cc1)NC(=O)[C@H](CC(=O)O)NC(=O)[C@H](CO)NC(=O)[C@@H](NC(=O)[C@H](Cc1ccccc1)NC(=O)[C@@H](NC(=O)CNC(=O)[C@H](CCC(=O)O)NC(=O)C(C)(C)NC(=O)[C@@H](N)Cc1ccc(O)cc1)[C@@H](C)O)[C@@H](C)CC)[C@@H](C)CC)C(=O)N[C@@H](Cc1c[nH]cn1)C(=O)N[C@@H](CCC(N)=O)C(=O)NC(C)(C)C(=O)N[C@@H](CC(=O)O)C(=O)N[C@@H](Cc1ccccc1)C(=O)N[C@H](C(=O)N[C@@H](CCC(=O)O)C(=O)N[C@@H](Cc1ccncc1)C(=O)N[C@@H](CCCCNC(=O)COCCOCCNC(=O)COCCOCCNC(=O)CC[C@H](NC(=O)CCCCCCCCCCCCCCCCCCC(=O)O)C(=O)O)C(=O)N[C@@H](CC(C)C)C(=O)N[C@@H](CCC(=O)O)C(=O)NCC(=O)NCC(=O)N1CCC[C@H]1C(=O)N[C@@H](CO)C(=O)N[C@@H](CO)C(=O)NCC(=O)N[C@@H](C)C(=O)N1CCC[C@H]1C(=O)N1CCC[C@H]1C(=O)N1CCC[C@H]1C(=O)N[C@@H](CO)C(N)=O)C(C)C [Example 109] (H-Y[Aib]EGTFISDYSI[αMeL]LDKIHQ[Aib]DFVE[4Pal]K([AEEA-AEEA-γGlu-C20 diacid])LEGGPSSGAPPPS-NH2) | > 960 nM | 0.117 nM
5 | CC[C@H](C)[C@H](NC(=O)[C@H](CCCN)NC(=O)[C@H](CC(=O)O)NC(=O)[C@H](CC(C)C)NC(=O)[C@](C)(CC(C)C)NC(=O)[C@@H](NC(=O)[C@H](CO)NC(=O)[C@H](Cc1ccc(O)cc1)NC(=O)[C@H](CC(=O)O)NC(=O)[C@H](CO)NC(=O)[C@@H](NC(=O)[C@H](Cc1ccccc1)NC(=O)[C@@H](NC(=O)CNC(=O)[C@H](CCC(=O)O)NC(=O)C(C)(C)NC(=O)[C@@H](N)Cc1ccc(O)cc1)[C@@H](C)O)[C@@H](C)CC)[C@@H](C)CC)C(=O)N[C@@H](Cc1c[nH]cn1)C(=O)N[C@@H](CCC(N)=O)C(=O)NC(C)(C)C(=O)N[C@@H](CCC(=O)O)C(=O)N[C@@H](Cc1ccccc1)C(=O)N[C@H](C(=O)N[C@@H](CCC(=O)O)C(=O)N[C@@H](Cc1ccc(O)cc1)C(=O)N[C@@H](CCCCNC(=O)COCCOCCNC(=O)COCCOCCNC(=O)CC[C@H](NC(=O)CCCCCCCCCCCCCCCCCCC(=O)O)C(=O)O)C(=O)N[C@@H](CC(C)C)C(=O)N[C@@H](CCC(=O)O)C(=O)N[C@@H](CCC(N)=O)C(=O)NCC(=O)N1CCC[C@H]1C(=O)N[C@@H](CO)C(=O)N[C@@H](CO)C(=O)NCC(=O)N[C@@H](C)C(=O)N1CCC[C@H]1C(=O)N1CCC[C@H]1C(=O)N1CCC[C@H]1C(=O)N[C@@H](CO)C(N)=O)C(C)C [Example 106] (H-Y[Aib]EGTFISDYSI[αMeL]LD[Orn]IHQ[Aib]EFVEYK([AEEA-AEEA-γGlu-C20 diacid])LEQGPSSGAPPPS-NH2) | 304 nM | 0.0918 nM
6 | CC[C@H](C)[C@H](NC(=O)[C@H](CO)NC(=O)[C@H](Cc1ccc(O)cc1)NC(=O)[C@H](CC(=O)O)NC(=O)[C@H](CO)NC(=O)[C@@H](NC(=O)[C@H](Cc1ccccc1)NC(=O)[C@@H](NC(=O)CNC(=O)[C@H](CCC(=O)O)NC(=O)[C@@H](C)NC(=O)[C@@H](N)Cc1ccc(O)cc1)[C@@H](C)O)[C@@H](C)CC)C(=O)N[C@@H](CC(C)C)C(=O)N[C@@H](CC(C)C)C(=O)N[C@@H](CC(=O)O)C(=O)N[C@@H](CCCCN)C(=O)N[C@@H](CCCCNC(=O)COCCOCCNC(=O)COCCOCCNC(=O)CC[C@H](NC(=O)CCCCCCCCCCCCCCCCCCC(=O)O)C(=O)O)C(=O)N[C@@H](C)C(=O)N[C@@H](CCC(N)=O)C(=O)NC(C)(C)C(=O)N[C@@H](CC(=O)O)C(=O)N[C@@H](Cc1ccccc1)C(=O)N[C@H](C(=O)N[C@@H](CC(N)=O)C(=O)N[C@@H](Cc1c[nH]c2ccccc12)C(=O)N[C@@H](CC(C)C)C(=O)N[C@@H](CC(C)C)C(=O)N[C@@H](C)C(=O)N[C@@H](CCC(N)=O)C(=O)NCC(=O)N1CCC[C@H]1C(=O)N[C@@H](CO)C(=O)N[C@@H](CO)C(=O)NCC(=O)N[C@@H](C)C(=O)N1CCC[C@H]1C(=O)N1CCC[C@H]1C(=O)N1CCC[C@H]1C(=O)N[C@@H](CO)C(N)=O)C(C)C [Example 1] | 228 nM | 0.0667 nM
